Where two headings read alike, the source gives them in different places.
Experiments:
RAF kinases [1] = target: T1, RAF kinases (Homo sapiens, UniProt P04049); conditions: read-out: RAF1 Kd; RAF1
RAF kinases [2] = target: T2, RAF kinases (Homo sapiens, UniProt P15056, V600E); conditions: read-out: BRAF V600E Kd; BRAF V600E
[3] = test system: MEK1 phosphorylation in the A375 human melanoma cell line; assay: cells; conditions: A-375, read-out: pMEK IC50
A375 cells = assay: cells; conditions: Homo sapiens, A-375, read-out: A375 Viability EC50
RAF kinases [4] = target: T3, RAF kinases (Homo sapiens, UniProt P15056); assay: biochemical
RAF kinases [5] = target: T3, RAF kinases; conditions: read-out: BRAF WT Kd; BRAF WT
RAF kinases [6] = target: T1, RAF kinases; assay: biochemical
RAF kinases [7] = target: T2, RAF kinases; assay: biochemical

T2 sequence (P15056 whole entry V600E): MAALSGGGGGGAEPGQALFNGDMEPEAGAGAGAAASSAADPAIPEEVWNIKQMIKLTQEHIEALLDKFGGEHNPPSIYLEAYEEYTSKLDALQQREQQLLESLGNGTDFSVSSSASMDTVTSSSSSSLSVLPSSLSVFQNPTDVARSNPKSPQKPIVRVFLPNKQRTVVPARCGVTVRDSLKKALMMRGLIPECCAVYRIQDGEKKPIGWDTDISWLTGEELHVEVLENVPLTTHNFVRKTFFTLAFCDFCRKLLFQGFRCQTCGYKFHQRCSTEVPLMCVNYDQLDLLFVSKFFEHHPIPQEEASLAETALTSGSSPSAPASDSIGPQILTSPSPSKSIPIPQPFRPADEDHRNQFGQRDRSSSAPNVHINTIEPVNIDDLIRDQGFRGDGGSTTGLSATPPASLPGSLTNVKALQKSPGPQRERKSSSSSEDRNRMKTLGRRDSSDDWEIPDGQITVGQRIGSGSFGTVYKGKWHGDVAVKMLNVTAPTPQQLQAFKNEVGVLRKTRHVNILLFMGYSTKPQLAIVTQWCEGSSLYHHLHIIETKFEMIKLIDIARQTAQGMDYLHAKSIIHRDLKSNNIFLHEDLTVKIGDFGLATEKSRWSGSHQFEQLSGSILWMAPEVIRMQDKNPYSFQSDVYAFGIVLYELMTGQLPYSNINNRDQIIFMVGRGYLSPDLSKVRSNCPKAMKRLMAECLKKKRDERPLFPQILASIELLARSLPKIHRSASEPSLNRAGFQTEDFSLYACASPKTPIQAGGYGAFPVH
T3 sequence (P15056 whole entry): as the sequence (P15056 whole entry V600E) above, with E600V counted along it
T1 sequence (P04049 whole entry): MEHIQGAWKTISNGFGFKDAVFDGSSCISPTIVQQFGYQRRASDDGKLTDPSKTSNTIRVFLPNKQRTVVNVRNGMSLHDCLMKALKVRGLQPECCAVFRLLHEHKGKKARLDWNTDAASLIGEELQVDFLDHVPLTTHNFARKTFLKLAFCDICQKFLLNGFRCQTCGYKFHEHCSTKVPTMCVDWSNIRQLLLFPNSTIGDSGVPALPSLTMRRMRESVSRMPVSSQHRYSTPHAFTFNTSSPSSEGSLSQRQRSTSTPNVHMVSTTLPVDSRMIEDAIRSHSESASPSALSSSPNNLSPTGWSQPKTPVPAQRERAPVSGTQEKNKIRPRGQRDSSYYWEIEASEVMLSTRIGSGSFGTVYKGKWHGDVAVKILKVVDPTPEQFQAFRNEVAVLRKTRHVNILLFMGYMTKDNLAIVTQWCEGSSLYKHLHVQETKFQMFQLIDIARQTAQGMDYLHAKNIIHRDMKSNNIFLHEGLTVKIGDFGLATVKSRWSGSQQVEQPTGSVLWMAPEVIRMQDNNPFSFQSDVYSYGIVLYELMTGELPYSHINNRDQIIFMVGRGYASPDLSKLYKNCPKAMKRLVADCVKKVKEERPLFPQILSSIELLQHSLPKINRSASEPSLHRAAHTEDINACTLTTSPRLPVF

| Compound | Kd (RAF kinases [1]) [nM] | Kd (RAF kinases [2]) [nM] | IC50 [3] [nM] | EC50 (A375 cells) [nM] | Kd (RAF kinases [4]) [nM] | Kd (RAF kinases [5]) [nM] | Kd (RAF kinases [7]) [nM] | Kd (RAF kinases [6]) [nM] |
| --- | --- | --- | --- | --- | --- | --- | --- | --- |
| COCCOc1cc2ncnc(Sc3cccc(NC(=O)Nc4cc(C5CCCC5)on4)c3)c2cc1OC [Ex 235, 1-(5-cyclopentylisoxazol-3-yl)-3-(3-(6-methoxy-7-(2-methoxyethoxy)quinazolin-4-ylthio)phenyl)urea] | < 250 | < 250 | 250 to 500 | > 1000 | 250 to 500 | – | – | – |
| COc1cc2ncnc(Sc3cccc(NC(=O)Nc4cc(C(C)(C)F)no4)c3)c2cc1OCCCN1CCS(=O)(=O)CC1 [Ex 245, 1-(3-(2-fluoropropan-2-yl)isoxazol-5-yl)-3-(3-(7-methoxy-6-(4,4-dioxo-3-thiomorpholinopropoxy)quinazolin-4-ylthio)phenyl)urea] | – | < 250 | < 250 | > 1000 | – | < 250 | – | 250 to 500 |
| COc1cc2c(Oc3cccc(NC(=O)Nc4cc(C(C)(C)F)no4)c3)ncnc2cc1OCCN1CCOCC1 [Ex 251, 1-(3-(2-fluoropropan-2-yl)isoxazol-5-yl)-3-(3-(6-methoxy-7-(2-morpholinoethoxy)quinazolin-4-yloxy)phenyl)urea] | – | < 250 | 250 to 500 | > 1000 | – | < 250 | – | 250 to 500 |
| COc1cc2ncnc(Oc3cccc(NC(=O)Nc4cc(C(C)(C)C(F)(F)F)on4)c3)c2cc1OC [Ex 259, 1-(3-(6,7-dimethoxyquinazolin-4-yloxy)phenyl)-3-(5-(1,1,1-trifluoro-2-methylpropan-2-yl)isoxazol-3-yl)urea] | < 250 | < 250 | < 250 | < 250 | < 250 | – | – | – |
| COc1cc2ncnc(Oc3cccc(NC(=O)Nc4cc(C(C)(C)C)nn4-c4ccccc4)c3C)c2cc1OC [Ex 289, 1-(3-tert-butyl-1-phenyl-1H-pyrazol-5-yl)-3-(3-(6,7-dimethoxyquinazolin-4-yloxy)-2-methylphenyl)urea] | – | < 250 | < 250 | 500 to 1000 | – | > 1000 | – | 500 to 1000 |
| COc1cc2ncnc(Oc3cccc(NC(=O)Nc4cc(C(C)(C)C)nn4-c4ccccc4)c3F)c2cc1OC [Ex 295, 1-(3-tert-butyl-1-phenyl-1H-pyrazol-5-yl)-3-(3-(6,7-dimethoxyquinazolin-4-yloxy)-2-fluorophenyl)urea] | – | < 250 | 500 to 1000 | > 1000 | – | > 1000 | – | 500 to 1000 |
| COc1cc2ncnc(Oc3ccc(Cl)c(NC(=O)Nc4cc(C(C)(C)C)on4)c3)c2cc1OC [Ex 299, 1-(5-tert-butylisoxazol-3-yl)-3-(2-chloro-5-(6,7-dimethoxyquinazolin-4-yloxy)phenyl)urea] | < 250 | < 250 | < 250 | – | 250 to 500 | – | – | – |
| COc1cc2ncnc(Sc3cccc(NC(=O)Nc4cc(C5CCC5)nn4-c4ccccc4)c3)c2cc1OC [Ex 356, 1-(3-cyclobutyl-1-phenyl-1H-pyrazol-5-yl)-3-(3-(6,7-dimethoxyquinazolin-4-ylthio)phenyl)urea] | – | < 250 | 250 to 500 | < 250 | – | > 1000 | – | 500 to 1000 |
| COc1cc2ncnc(Oc3cccc(NC(=O)Nc4cc(C(C)(C)C)nn4Cc4ccccc4)c3)c2cc1OC [Ex 357, 1-(1-benzyl-3-tert-butyl-1H-pyrazol-5-yl)-3-(3-(6,7-dimethoxyquinazolin-4-yloxy)phenyl)urea] | > 1000 | < 250 | 250 to 500 | > 1000 | 500 to 1000 | – | – | – |
| COc1cc2ncnc(Sc3cccc(NC(=O)Nc4cc(C(C)(C)C)nn4Cc4ccccc4)c3)c2cc1OC [Ex 358, 1-(1-benzyl-3-tert-butyl-1H-pyrazol-5-yl)-3-(3-(6,7-dimethoxyquinazolin-4-ylthio)phenyl)urea] | > 1000 | < 250 | 250 to 500 | – | – | > 1000 | – | – |
| COc1cc2ncnc(Sc3cccc(NC(=O)Nc4cc(C(C)(C)C)nn4-c4cccc(Cl)c4)c3)c2cc1OC [Ex 364, 1-(3-tert-butyl-1-(3-chlorophenyl)-1H-pyrazol-5-yl)-3-(3-(6,7-dimethoxyquinazolin-4-ylthio)phenyl)urea] | > 1000 | < 250 | < 250 | – | 500 to 1000 | – | – | – |

Now from value to compound, other results behind:

| Kd (RAF kinases [1]) [nM] | Kd (RAF kinases [2]) [nM] | IC50 [3] [nM] | EC50 (A375 cells) [nM] | Kd (RAF kinases [4]) [nM] | Kd (RAF kinases [5]) [nM] | Kd (RAF kinases [7]) [nM] | Compound | Kd (RAF kinases [6]) [nM] |
| --- | --- | --- | --- | --- | --- | --- | --- | --- |
| < 250 | < 250 | < 250 | < 250 | 250 to 500 | – | – | COCCOc1cc2ncnc(Oc3cccc(NC(=O)Nc4cc(C(C)(CF)CF)on4)c3)c2cc1OC [Ex 213, 1-[5-(1,3-difluoro-2-methylpropan-2-yl)isoxazol-3-yl]-3-{3-[6-methoxy-7-(2-methoxyethoxy)quinazolin-4-yloxy]phenyl}urea] | – |
| < 250 | < 250 | 250 to 500 | > 1000 | 250 to 500 | – | – | COCCOc1cc2ncnc(Oc3cccc(NC(=O)Nc4cc(C(C)(C)F)no4)c3)c2cc1OC [Ex 218, 1-(3-(2-fluoropropan-2-yl)isoxazol-5-yl)-3-(3-(6-methoxy-7-(2-methoxyethoxy)quinazolin-4-yloxy)phenyl)urea] | – |
| – | – | > 1000 | > 1000 | – | > 1000 | 250 to 500 | COCCOc1cc2ncnc(Oc3cccc(NC(=O)Nc4ccc(C(F)(F)F)c(OC)c4)c3)c2cc1OC [Ex 223, 1-(3-methoxy-4-(trifluoromethyl)phenyl)-3-(3-(6-methoxy-7-(2-methoxyethoxy)quinazolin-4-yloxy)phenyl)urea] | 500 to 1000 |
| < 250 | < 250 | > 1000 | > 1000 | 250 to 500 | – | – | COCCOc1cc2ncnc(Oc3cccc(NC(=O)Nc4cc(C(F)(F)F)no4)c3)c2cc1OC [Ex 229, 1-(3-(6-methoxy-7-(2-methoxyethoxy)quinazolin-4-yloxy)phenyl)-3-(3-(trifluoromethyl)isoxazol-5-yl)urea] | – |
| > 1000 | > 1000 | < 250 | – | – | > 1000 | – | COCCOc1cc2ncnc(Sc3cccc(NC(=O)Nc4cc(C(C)(C)C)nn4-c4ccccc4)c3)c2cc1OC [Ex 236, 1-(3-tert-butyl-1-phenyl-1H-pyrazol-5-yl)-3-(3-(6-methoxy-7-(2-methoxyethoxy)quinazolin-4-ylthio)phenyl)urea] | – |
| < 250 | < 250 | > 1000 | > 1000 | 250 to 500 | – | – | COc1cc2ncnc(Oc3cccc(NC(=O)Nc4cc(C(F)(F)F)no4)c3)c2cc1OC [Ex 254, 1-(3-(6,7-dimethoxyquinazolin-4-yloxy)phenyl)-3-(3-(trifluoromethyl)isoxazol-5-yl)urea] | – |
| < 250 | < 250 | < 250 | 250 to 500 | 250 to 500 | – | – | COc1cc2ncnc(Oc3cccc(NC(=O)Nc4cc(C(C)(C)C(F)(F)F)on4)c3F)c2cc1OC [Ex 265, 1-(3-(6,7-dimethoxyquinazolin-4-yloxy)-2-fluorophenyl)-3-(5-(1,1,1-trifluoro-2-methylpropan-2-yl)isoxazol-3-yl)urea] | – |
| < 250 | < 250 | < 250 | – | – | < 250 | – | COc1cc2ncnc(Oc3cc(NC(=O)Nc4cc(C(C)(C)C(F)(F)F)on4)ccc3F)c2cc1OC [Ex 266, 1-(3-(6,7-dimethoxyquinazolin-4-yloxy)-4-fluorophenyl)-3-(5-(1,1,1-trifluoro-2-methylpropan-2-yl)isoxazol-3-yl)urea] | – |
| > 1000 | < 250 | < 250 | – | – | > 1000 | – | COCCOc1cc2ncnc(Oc3cccc(NC(=O)Nc4cc(C(C)(C)C)nn4-c4ccc(C)cc4)c3)c2cc1OC [Ex 276, 1-(3-tert-butyl-1-p-tolyl-1H-pyrazol-5-yl)-3-(3-(6-methoxy-7-(2-methoxyethoxy)quinazolin-4-yloxy)phenyl)urea] | – |
| < 250 | < 250 | < 250 | – | – | < 250 | – | COc1cc2ncnc(Oc3cc(NC(=O)Nc4cc(C(C)(CF)CF)on4)ccc3F)c2cc1OC [Ex 294, 1-(5-(1,3-difluoro-2-methylpropan-2-yl)isoxazol-3-yl)-3-(3-(6,7-dimethoxyquinazolin-4-yloxy)-4-fluorophenyl)urea] | – |
| > 1000 | < 250 | < 250 | – | – | > 1000 | – | COc1cc2ncnc(Oc3cccc(NC(=O)Nc4cc(C(C)(C)C)nn4-c4cccc(F)c4)c3)c2cc1OC [Ex 359, 1-(3-tert-butyl-1-(3-fluorophenyl)-1H-pyrazol-5-yl)-3-(3-(6,7-dimethoxyquinazolin-4-yloxy)phenyl)urea] | – |
| > 1000 | < 250 | < 250 | – | 250 to 500 | – | – | COc1cc2ncnc(Oc3cccc(NC(=O)Nc4cc(C(C)(C)C)nn4-c4cccc(Cl)c4)c3)c2cc1OC [Ex 363, 1-(3-tert-butyl-1-(3-chlorophenyl)-1H-pyrazol-5-yl)-3-(3-(6,7-dimethoxyquinazolin-4-yloxy)phenyl)urea] | – |
| > 1000 | < 250 | < 250 | > 1000 | 500 to 1000 | – | – | COc1cc2ncnc(Oc3cccc(NC(=O)Nc4cc(C(C)(C)C)nn4-c4ccc(C(C)(C)C)cc4)c3)c2cc1OC [Ex 369, 1-(3-tert-butyl-1-(4-tert-butylphenyl)-1H-pyrazol-5-yl)-3-(3-(6,7-dimethoxyquinazolin-4-yloxy)phenyl)urea] | – |
| – | < 250 | < 250 | 250 to 500 | – | > 1000 | – | COc1cc2ncnc(Oc3cc(NC(=O)Nc4cc(C(F)(F)F)nn4-c4ccccc4)ccc3F)c2cc1OC [Ex 397, 1-(3-(6,7-Dimethoxyquinazolin-4-yloxy)-4-fluorophenyl)-3-(1-phenyl-3-(trifluoromethyl)-1H-pyrazol-5-yl)urea] | 500 to 1000 |

— patent publication US8618289B2 (Ambit Biosciences Corporation, priority 2008, dated 2013)
